Experimental data reported in publication PMC6008299, “Impact of race on dose selection of molecular-targeted agents in early-phase oncology trials” (British Journal of Cancer, 2018).
“Also recorded” adds a separate entry of the source.

System: patients with advanced, refractory solid tumours
Assay: Phase I dose-escalation study U101 (US): safety, DLT, MTD
Type: in vivo
Text: Studies were approved by the Institutional Review Board at the participating institutions and regulatory authorities. Written informed consent in English and Japanese was obtained from all patients prior to enrollment.
Secondary and exploratory objectives were to evaluate PK, tumour response, and PD effects. Treatment-emergent adverse events (TEAE) were graded using the Common Terminology Criteria for Adverse Events version 4.0. A dose-limiting toxicity (DLT) was defined as a grade ≥3 clinically significant toxicity, with the exceptions of grade ≥4 anaemia and prolonged grade 3 neutropenia. Both studies were open-label, phase I dose-escalation studies. In Japan, the study was conducted at a single centre, while the US study was conducted at three sites. […] In the US, an accelerated titration design was used at low doses followed by a mCRM with EWOC. Briefly, the dose was escalated based on safety data in a single patient until a grade 2 or higher toxicity was observed during cycle 1 or the DLT period (days 1–28). […] Prophylactic granulocyte colony-stimulating factor and antiemetics were not permitted during cycle 1.

Structure (SMILES): CC(=O)N1CCN(c2nc3c(N4CCOCC4)nc(-c4cnc(N)nc4)nc3n2CC(F)(F)F)C[C@H]1C [DS-7423]
- AST increased (TEAE), n patients (160 mg US cohort (n = 4)): 0
- Abdominal pain (TEAE), n patients (160 mg US cohort (n = 4)): 1
- Back pain (TEAE), n patients (160 mg US cohort (n = 4)): 0
- Blood creatinine increased (TEAE), n patients (160 mg US cohort (n = 4)): 2
- Constipation (TEAE), n patients (160 mg US cohort (n = 4)): 2
- Cough (TEAE), n patients (160 mg US cohort (n = 4)): 0
- Decreased appetite (TEAE), n patients (160 mg US cohort (n = 4)): 3
- Dehydration (TEAE), n patients (160 mg US cohort (n = 4)): 1
- Diarrhoea (TEAE), n patients (160 mg US cohort (n = 4)): 4
- Dry mouth (TEAE), n patients (160 mg US cohort (n = 4)): 0
- Dysgeusia (TEAE), n patients (160 mg US cohort (n = 4)): 1
- Dyspnea (TEAE), n patients (160 mg US cohort (n = 4)): 0
- Edema (TEAE), n patients (160 mg US cohort (n = 4)): 0
- Fatigue (TEAE), n patients (160 mg US cohort (n = 4)): 4
- Hyperglycaemia (TEAE), n patients (160 mg US cohort (n = 4)): 1
- Lung infection/ pneumonia (TEAE), n patients (160 mg US cohort (n = 4)): 0
- Nausea (TEAE), n patients (160 mg US cohort (n = 4)): 2
- Pyrexia (TEAE), n patients (160 mg US cohort (n = 4)): 0
- Rash (TEAE), n patients (160 mg US cohort (n = 4)): 0
- Stomatitis (TEAE), n patients (160 mg US cohort (n = 4)): 1
- Vomiting (TEAE), n patients (160 mg US cohort (n = 4)): 2
- Abdominal pain (TEAE), n patients (240 mg US cohort (n = 9)): 4
- Back pain (TEAE), n patients (240 mg US cohort (n = 9)): 3
- Blood creatinine increased (TEAE), n patients (240 mg US cohort (n = 9)): 2
- Constipation (TEAE), n patients (240 mg US cohort (n = 9)): 1
- Cough (TEAE), n patients (240 mg US cohort (n = 9)): 0
- Decreased appetite (TEAE), n patients (240 mg US cohort (n = 9)): 5
- Decreased appetite ≥G3, n patients (240 mg US cohort (n = 9)): 1
- Dehydration (TEAE), n patients (240 mg US cohort (n = 9)): 1
- Diarrhoea (TEAE), n patients (240 mg US cohort (n = 9)): 5
- Dry mouth (TEAE), n patients (240 mg US cohort (n = 9)): 3
- Dysgeusia (TEAE), n patients (240 mg US cohort (n = 9)): 2
- Dyspnea (TEAE), n patients (240 mg US cohort (n = 9)): 3
- Edema (TEAE), n patients (240 mg US cohort (n = 9)): 1
- Fatigue (TEAE), n patients (240 mg US cohort (n = 9)): 5
- Fatigue ≥G3, n patients (240 mg US cohort (n = 9)): 1
- Hyperglycaemia (TEAE), n patients (240 mg US cohort (n = 9)): 2
- Lung infection/ pneumonia (TEAE), n patients (240 mg US cohort (n = 9)): 1
- Nausea (TEAE), n patients (240 mg US cohort (n = 9)): 4
- Pyrexia (TEAE), n patients (240 mg US cohort (n = 9)): 2
- Rash (TEAE), n patients (240 mg US cohort (n = 9)): 0
- Stomatitis (TEAE), n patients (240 mg US cohort (n = 9)): 5
- Stomatitis G3, n patients (240 mg US cohort (n = 9)): 1
- Vomiting (TEAE), n patients (240 mg US cohort (n = 9)): 3
- AST increased (TEAE), n patients (240 mg US cohort (n = 9), cell marks ≥G3): 2, ≥G3
- AST increased (TEAE), n patients (320 mg US cohort (n = 8)): 0
- Abdominal pain (TEAE), n patients (320 mg US cohort (n = 8)): 0
- Back pain (TEAE), n patients (320 mg US cohort (n = 8)): 0
- Blood creatinine increased (TEAE), n patients (320 mg US cohort (n = 8)): 2
- Constipation (TEAE), n patients (320 mg US cohort (n = 8)): 1
- Cough (TEAE), n patients (320 mg US cohort (n = 8)): 1
- Decreased appetite (TEAE), n patients (320 mg US cohort (n = 8)): 5
- Dehydration (TEAE), n patients (320 mg US cohort (n = 8)): 3
- Dehydration G3, n patients (320 mg US cohort (n = 8)): 1
- Diarrhoea (TEAE), n patients (320 mg US cohort (n = 8)): 4
- Dry mouth (TEAE), n patients (320 mg US cohort (n = 8)): 2
- Dysgeusia (TEAE), n patients (320 mg US cohort (n = 8)): 5
- Dyspnea (TEAE), n patients (320 mg US cohort (n = 8)): 2
- Edema (TEAE), n patients (320 mg US cohort (n = 8)): 1
- Fatigue (TEAE), n patients (320 mg US cohort (n = 8)): 6
- Fatigue G3, n patients (320 mg US cohort (n = 8)): 1
- Hyperglycaemia (TEAE), n patients (320 mg US cohort (n = 8)): 3
- Nausea (TEAE), n patients (320 mg US cohort (n = 8)): 5
- Pyrexia (TEAE), n patients (320 mg US cohort (n = 8)): 2
- Rash (TEAE), n patients (320 mg US cohort (n = 8)): 3
- Stomatitis (TEAE), n patients (320 mg US cohort (n = 8)): 1
- Vomiting (TEAE), n patients (320 mg US cohort (n = 8)): 4
- Lung infection/ pneumonia (TEAE), n patients (320 mg US cohort (n = 8), cell marks G3): 1, G3
- AST increased (TEAE), n patients (2–28 mg US cohort (n = 10)): 3
- AST increased ≥G3, n patients (2–28 mg US cohort (n = 10)): 1
- Abdominal pain (TEAE), n patients (2–28 mg US cohort (n = 10)): 0
- Back pain (TEAE), n patients (2–28 mg US cohort (n = 10)): 5
- Blood creatinine increased (TEAE), n patients (2–28 mg US cohort (n = 10)): 0
- Constipation (TEAE), n patients (2–28 mg US cohort (n = 10)): 3
- Cough (TEAE), n patients (2–28 mg US cohort (n = 10)): 2
- Decreased appetite (TEAE), n patients (2–28 mg US cohort (n = 10)): 3
- Dehydration (TEAE), n patients (2–28 mg US cohort (n = 10)): 0
- Diarrhoea (TEAE), n patients (2–28 mg US cohort (n = 10)): 5
- Dry mouth (TEAE), n patients (2–28 mg US cohort (n = 10)): 3
- Dysgeusia (TEAE), n patients (2–28 mg US cohort (n = 10)): 0
- Dyspnea (TEAE), n patients (2–28 mg US cohort (n = 10)): 2
- Edema (TEAE), n patients (2–28 mg US cohort (n = 10)): 2
- Fatigue (TEAE), n patients (2–28 mg US cohort (n = 10)): 7
- Fatigue ≥G3, n patients (2–28 mg US cohort (n = 10)): 2
- Hyperglycaemia (TEAE), n patients (2–28 mg US cohort (n = 10)): 0
- Nausea (TEAE), n patients (2–28 mg US cohort (n = 10)): 6
- Pyrexia (TEAE), n patients (2–28 mg US cohort (n = 10)): 1
- Rash (TEAE), n patients (2–28 mg US cohort (n = 10)): 2
- Stomatitis (TEAE), n patients (2–28 mg US cohort (n = 10)): 1
- Vomiting (TEAE), n patients (2–28 mg US cohort (n = 10)): 4
- Lung infection/ pneumonia (TEAE), n patients (2–28 mg US cohort (n = 10), cell marks G3): 1, G3
- AST increased (TEAE), n patients (48–80 mg US cohort (n = 11)): 1
- Abdominal pain (TEAE), n patients (48–80 mg US cohort (n = 11)): 1
- Back pain (TEAE), n patients (48–80 mg US cohort (n = 11)): 1
- Blood creatinine increased (TEAE), n patients (48–80 mg US cohort (n = 11)): 0
- Constipation (TEAE), n patients (48–80 mg US cohort (n = 11)): 0
- Cough (TEAE), n patients (48–80 mg US cohort (n = 11)): 3
- Decreased appetite (TEAE), n patients (48–80 mg US cohort (n = 11)): 2
- Diarrhoea (TEAE), n patients (48–80 mg US cohort (n = 11)): 4
- Dry mouth (TEAE), n patients (48–80 mg US cohort (n = 11)): 3
- Dysgeusia (TEAE), n patients (48–80 mg US cohort (n = 11)): 2
- Dyspnea (TEAE), n patients (48–80 mg US cohort (n = 11)): 1
- Edema (TEAE), n patients (48–80 mg US cohort (n = 11)): 1
- Fatigue (TEAE), n patients (48–80 mg US cohort (n = 11)): 5
- Fatigue ≥G3, n patients (48–80 mg US cohort (n = 11)): 1
- Hyperglycaemia (TEAE), n patients (48–80 mg US cohort (n = 11)): 2
- Lung infection/ pneumonia (TEAE), n patients (48–80 mg US cohort (n = 11)): 0
- Nausea (TEAE), n patients (48–80 mg US cohort (n = 11)): 6
- Pyrexia (TEAE), n patients (48–80 mg US cohort (n = 11)): 2
- Rash (TEAE), n patients (48–80 mg US cohort (n = 11)): 4
- Rash G3, n patients (48–80 mg US cohort (n = 11)): 1
- Stomatitis (TEAE), n patients (48–80 mg US cohort (n = 11)): 3
- Vomiting (TEAE), n patients (48–80 mg US cohort (n = 11)): 3
- Dehydration (TEAE), n patients (48–80 mg US cohort (n = 11), cell marks G3): 1, G3
- MTD (US study): 240 mg
- Grade 3 DLT (US study, 48 mg): rash
- Grade 3 DLT (US study, 240 mg): stomatitis; also recorded: fatigue and dehydration
- Patients with DLT (US study, of 34 DLT-evaluable patients): 4
